From US20100285583A1, “COMPOUNDS AND METHODS FOR INHIBITING PLATELET AGGREGATION” (priority 2009, published 2010)
One block for each molecule: values may come before it.

Experiments:
[1] = tested on: T1, Dab2 N-terminal phosphotyrosine binding domain (N-PTB, residues 1-241 of human Disabled-2), wild type
T1 sequence: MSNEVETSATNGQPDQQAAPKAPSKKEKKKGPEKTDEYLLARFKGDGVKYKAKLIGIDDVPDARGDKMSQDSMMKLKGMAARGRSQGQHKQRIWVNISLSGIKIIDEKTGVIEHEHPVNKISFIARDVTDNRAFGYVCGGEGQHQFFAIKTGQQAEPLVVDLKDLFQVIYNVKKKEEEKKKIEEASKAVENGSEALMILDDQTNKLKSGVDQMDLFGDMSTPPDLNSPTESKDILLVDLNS

[2] = target: T2, N-PTB domain (Homo sapiens, UniProt P98082, A82R); experiment: Protein-lipid overlay competition assay; format: binding; conditions: pre-incubation with 10-fold excess of lipid
T2 construct: The N-PTB domain (residues 1-241) cDNA construct was cloned into a pGEX6P1 vector; made in house; host or cells: E. coli Rosetta
T2 sequence (P98082 1-241 A82R): T1 sequence
Protocol: Membrane strips (SphingoStrips™) spotted with 100 pmol of sphingolipids were purchased from Echelon Research Laboratories. Membrane strips were incubated with 0.1 μg/ml of the Dab2 PTB domain or its mutants in 20 mM Tris-HCl (pH 8.0), 150 mM NaCl, 0.1% Tween-20 and 3% fatty acid-free bovine serum albumin overnight at 4° C. Following four washes with the same buffer, proteins bound to the membrane strips were probed with rabbit anti-GST antibody (Santa Cruz Biotech). Donkey anti rabbit-horse radish peroxidase (HRP) antibody was obtained from GE Healthcare. Detection was carried out using ECL reagent (Pierce). Also, lipid strips were prepared by spotting 1 μl of either sulfatides or PtdIns(4,5)P2 dissolved in chloroform:methanol:water (1:2:0.8 and 65:35:8, respectively) onto Hybond-C extra membranes (GE Healthcare) and protein binding was monitored as described above. Bound protein was quantified using the AlphaImager program and binding was calculated as a percentage of GST-PTB binding to 100 pmoles of spotted lipid.
We next asked whether sulfatides and PtdIns(4,5)P2 compete with each other for binding to the N-PTB domain using a protein-lipid overlay competition assay. […] This observation was further confirmed by competing sulfatides and PtdIns(4,5)P2 for N-PTB domain binding using SPR. […]

[3] = tested on: Human washed platelets; experiment: Platelet immunofluorescence analysis (subcellular localization); format: cell-based; conditions: activated platelets in presence of inhibitor
Protocol: Washed platelets (50 μl of […] in Tyrode's albumin buffer) were incubated with 1.9 μM of PTB domain constructs for 5 min at room temperature in the presence of 0.25 g/L fibrinogen. Aggregation was initiated by the addition of 10 μM TRAP. Reactions were incubated at room temperature unless otherwise indicated. Platelets were fixed with 0.4 mL of 3.7% formaldehyde in Phosphate Buffered Saline (PBS) for 30 min. Next, 20% goat serum was added to the fixed platelets, and 60% of the total fixed reaction was centrifuged using a Shandon cytospinner onto a Shandon coated cytoslide to achieve the appropriate platelet density for analysis. Slides were then washed twice with PBS for 10 min. Platelets were permeabilized with 0.5% Triton X-100 in PBS for 10 min and then blocked with 20% goat serum in PBS with 0.1% Triton X-100 for 1 h at room temperature. Platelets were washed 3 times with PBS with 0.1% Triton for 10 minutes and further incubated overnight with the anti-Dab2 antibody 1:100 (anti-p96; BD Transduction) in PBS with 0.1% Triton X-100 and 10% goat serum at 4° C. in a humidity chamber. Platelets were then washed and incubated with the anti-mouse Cy-3 conjugated goat antibody 1:250 and Alexa488 conjugated phalloidin (25 μg/mL) in PBS with 0.1% Triton X-100 and 10% goat serum for 2 h. Platelets were washed again and observed on an Olympus IX71 microscope using the Softworx Applied Precision software.
Mean pixel intensity was determined for 400 platelets from four fields each for 3 min and 10 min of treatments by manually drawing circles around individual platelets using the 2D Polygon tool in the Softworx software. For each time point, a threshold of significant mean pixel intensity was defined for the experiment. The percentage of countable platelets to exceed the threshold was calculated for each field and the average of four fields was computed with standard deviation. The ratio of internalization:binding is the quotient of these averages for a treatment.

Molecule: thrombin
thrombin proteolysis of the N-PTB domain (FIG. 3B) [1]: thrombin cleaved the N-PTB domain leaving a ˜25 kW protease-resistant product

competition with sulfatide for PTB binding [2]: did not compete
Molecule: CCCCCCCCCCCCCCCC(=O)OC[C@H](COP(=O)(O)O[C@@H]1[C@H](O)[C@H](OP(=O)(O)O)[C@@H](O)[C@H](O)[C@H]1O)OC(=O)CCCCCCCCCCCCCCC [PtdIns(3)P, phosphatidylinositol 3-phosphate]

Molecule: C=C1[C@@H](C)[C@H]2[C@H](Cc3ccccc3)NC(=O)[C@]23[C@H](OC(C)=O)/C=C/[C@@](C)(O)C(=O)[C@@H](C)C/C=C/[C@H]3[C@@H]1O [cytochalasin D, reference compound]
effect on N-PTB domain internalization [3]: completely blocked N-PTB domain internalization

reduction of sulfatide binding of N-PTB domain [2]: at least 60%
Molecule: phosphatidylinositol 4,5-bisphosphate [PtdIns(4,5)P2]

Molecule: CN(C)CCCN1c2ccccc2Sc2ccc(Cl)cc21 [chlorpromazine, reference compound]
effect on N-PTB domain internalization [3]: inhibited
